The target of one experiment is T1, human KDELR1 (Homo sapiens, UniProt P24390).
T1 construct: expressed in transfected cells; host or cells: COS-7
Description: ER retrieval assay, WT KDELR1-GFP. The format is cell-based. The settings on record: COS-7 cells, WT human KDEL receptor-GFP with mScarlet ligand. An excerpt:
To create KDELR1-GFP and KDELR2-GFP, the reading frames for Homo sapiens KDELR1 (Uniprot: P24390) and KDELR2 (Uniprot: P33947) were cloned into the pEF5/FRT low level mammalian expression vector with a C-terminal 20 amino acid linker made up of 5 copies of Gly-Ser-Ser-Ser followed by GFP. Specific point mutations were introduced using the Quickchange protocol (Stratagene) and are described in the key resources table and figures. To create the mScarlet-KDEL^sec ligand construct, mScarlet with an N-terminal hGH signal peptide and the 16 C-terminal residues of human BiP at its C-terminus, containing the KDEL signal, was cloned into the pcDNA3.1 vector. […] The Golgi marker protein TGN46 was detected by antibody (sheep anti-TGN46 AHP500G; AbD Serotec) and an Alexa 647 conjugated secondary anti-sheep secondary (A-21448, Invitrogen). In Figure 1d and e, endogenous KDELR was detected by antibody (mouse anti-KDELR ADI-VAA-PT048; Enzo Life Sciences) and Alexa 488 conjugated anti-mouse secondary antibody (A-21202, Invitrogen). For retrieval assays in other figures, KDELR-GFP fusion proteins were directly detected by fluorescence. The mScarlet-xDEL fusion proteins were directly detected by fluorescence. […] The fraction of KDEL receptor in the Golgi apparatus was calculated by dividing the Golgi signal by the total cell signal. […]

For another experiment, the target named is T2, chicken KDELR2 (Gallus gallus, UniProt Q5ZKX9).
T2 construct: GFP (of the pDDGFP vector); made in house; host or cells: Saccharomyces cerevisiae Bj5460
T2 sequence (Q5ZKX9 1-212): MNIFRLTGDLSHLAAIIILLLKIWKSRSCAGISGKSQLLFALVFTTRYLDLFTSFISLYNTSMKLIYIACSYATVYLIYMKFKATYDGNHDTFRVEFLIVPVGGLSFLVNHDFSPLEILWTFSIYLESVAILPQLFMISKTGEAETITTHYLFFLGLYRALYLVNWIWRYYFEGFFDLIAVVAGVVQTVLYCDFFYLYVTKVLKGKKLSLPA
Description: Competition binding assay, [3H]-TAEHDEL against unlabelled peptide. The note with it: for IC50: competition with [3H]-TAEHDEL, free (COOH) or amidated (CONH) C-terminus, pH 5.4, read-out: Competitor peptide IC50. The text has this: (§1) Figure 1. ER retrieval signal abundance and affinity are not correlated. (a) Sequence logos for ER resident proteins with C-terminal KDEL retrieval signals and variants thereof calculated using frequency or protein abundance ([Itzhak et al., 2017]; [Itzhak et al., 2016]). (b) Combined cellular concentrations of ER resident proteins with canonical KDEL, RDEL, and HDEL retrieval sequences in HeLa cells and mouse brain. (c) Competition binding assays for [^3H]-TAEHDEL and unlabelled TAEKDEL, TAERDEL, and TAEHDEL to the KDEL receptor. IC50 values for the competing peptides were used to calculate the apparent KDwith the Cheng-Prusoff equation ([Cheng and Prusoff, 1973]). (d) Endogenous KDEL receptor redistribution was measured in COS-7 cells in the absence (-ligand) or presence of K/R/H/A/DDEL (mScarlet-xDEL^sec). TGN46 was used as a Golgi marker. Scale bar is 10 µm. (e) The mean difference for K/R/H/A/DDEL comparisons against the shared no ligand control are shown as Cummings estimation plots. The individual data points for the fraction of KDEL receptor fluorescence in the Golgi are plotted on the upper axes with sample sizes and p values. Figure 1—source data 1. Source data for the ligand-induced KDELR receptor retrieval assays in Figure 1e. Figure 1—figure supplement 1. Abundance of ER resident proteins and chaperones in human cells and mouse brain. (a) The mean concentration of ER resident chaperones with the indicated ER retrieval sequence variant is plotted in the bar graph ([Itzhak et al., 2017]; [Itzhak et al., 2016]). […] Endogenous ER chaperone secretion was measured by western blotting after challenge with different retrieval signals, and plotted as a bar graph showing mean ± SEM (n = 3). […] (a) Distribution of human KDELR1 and (b) KDELR2 was measured in COS-7 cells in the absence (-ligand) or presence of K/R/H/A/DDEL retrieval signals (K/R/H/A/DDEL^sec). […] The fraction of KDEL receptor localised to the Golgi was measured before (no ligand) and after challenge with different retrieval signals as indicated. […]

Experiment [1] has as its system endogenous KDEL receptor in COS-7 cells. The experiment in a line: ER retrieval assay, endogenous KDEL receptor redistribution. The settings on record: COS-7 cells. The experiment is classed as cell-based, African green monkey.
Text: as §1, with “1.” for “1. Abundance of ER resident proteins and chaperones in human cells and mouse brain. (a) The mean concentration of ER resident chaperones with the indicated ER retrieval sequence variant is plotted in the bar graph ([Itzhak et al., 2017]; [Itzhak et al., 2016]).”
To create KDELR1-GFP and KDELR2-GFP, the reading frames for Homo sapiens KDELR1 (Uniprot: P24390) and KDELR2 (Uniprot: P33947) were cloned into the pEF5/FRT low level mammalian expression vector with a C-terminal 20 amino acid linker made up of 5 copies of Gly-Ser-Ser-Ser followed by GFP. […]

Experiment [2] has as its target T3, TAEKDEL retrieval signal peptide (BiP) (Homo sapiens).
T3 chain: TAEKDEL
The experiment in a line: [3H]-peptide filter binding assay, pH 5.4.

Experiment [3] deals with T4, TAEHDEL retrieval signal peptide.
T4 chain: TAEHDEL
The experiment in a line: [3H]-peptide filter binding assay, pH 5.4.

The record followed here is publication PMC8248988, “A signal capture and proofreading mechanism for the KDEL-receptor explains selectivity and dynamic range in ER retrieval” (eLife, 2021).

Ends that are not written are not given here.

T1 sequence (P24390 whole entry): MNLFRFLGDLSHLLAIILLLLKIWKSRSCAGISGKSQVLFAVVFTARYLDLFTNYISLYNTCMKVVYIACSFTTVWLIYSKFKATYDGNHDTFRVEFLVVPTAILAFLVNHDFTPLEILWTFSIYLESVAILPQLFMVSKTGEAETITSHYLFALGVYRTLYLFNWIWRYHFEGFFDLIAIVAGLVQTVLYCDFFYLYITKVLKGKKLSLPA

Regarding “pcDNA3.1 hGHss-mScarlet-S. cerevisiae BiP667-682 [FEHDEL]”, on human KDELR1, the “ligand-induced receptor retrieval to the ER (in words)” value is recorded as “functional”.

With “TAEKDEL-CONH [KDEL^CONH, C-amidated peptide variant]”, the “binding of C-terminally amidated peptide to wild-type receptor (in words)” value at chicken KDELR2 (amidated C-terminus) was “completely abolished binding”.

TAEKDEL: the “localisation of the mScarlet ligand (in words)” value in experiment [1] was “retrieved to the ER”.

Take TAEKDEL-OH [KDEL, TAEKDEL]: the IC50 at chicken KDELR2 is 152 ± 21.7 µM.

TAEHDEL-NH2 [HDEL^CONH, TAEHDEL-CONH]: the IC50 on chicken KDELR2 is 1750 ± 170 µM.

B1: KDEL receptor 2 (protein)
chain: MNIFRLTGDLSHLAAIIILLLKIWKSRSCAGISGKSQLLFALVFTTRYLDLFTSFISLYNTSMKLIYIACSYATVYLIYMKFKATYDGNHDTFRVEFLIVPVGGLSFLVNHDFSPLAILWTFSIYLESVAILPQLFMISKTGEAETITTHYLFFLGLYRALYLVNWIWRYYFEGFFDLIAVVAGVVQTVLYCDFFYLYVTKVLKGKKLSLPA
Regarding B1, the values for the Kd in experiment [2] and in experiment [3] were around 9.3 µM and 0.52 µM, respectively.

B2: KDEL receptor 2 (protein)
chain: MNIFRLTGDLSHLAAIIILLLKIWKSRSCAGISGKSQLLFALVFTTRYLDLFTSFISLYNTSMKLIYIACSYATVYLIYMKFKATYDGNHDTFRVEFLIVPVGGLSFLVNHDFSPLEILFTFSIYLESVAILPQLFMISKTGEAETITTHYLFFLGLYRALYLVNWIWRYYFEGFFDLIAVVAGVVQTVLYCDFFYLYVTKVLKGKKLSLPA
In experiment [3], B2 yielded a Kd of 5.5 µM.

B3: KDEL receptor 2 (protein)
chain: MNIFRLTGDLSHLAAIIILLLKIWKSRSCAGISGKSQLLFALVFTTRYLDLFTSFISLYNTSMKLIYIACSYATVYLIYMKFKATYDGNHDTFRVEFLIVPVGGLSFLVNHDFSPLDILWTFSIYLESVAILPQLFMISKTGEAETITTHYLFFLGLYRALYLVNWIWRYYFEGFFDLIAVVAGVVQTVLYCDFFYLYVTKVLKGKKLSLPA
On to B3, for which the results for the Kd in experiment [2] and in experiment [3] were 2.1 µM and 0.52 µM, respectively.
